Test results taken from PMC11241437, “Structure-Based Analysis of Cefaclor Pharmacokinetic Diversity According to Human Peptide Transporter-1 Genetic Polymorphism” (International Journal of Molecular Sciences, 2024).

Experiments:
PEPT1 = test system: PEPT1; design: method as in PMID 9950279; conditions: Caco-2; cited from earlier work
[1] = type: in vitro ADME; conditions: human
Procedure: Supplementary Information S3
Determination of cefaclor plasma concentrations
Concentrations of unchanged cefaclor in plasma were determined by applying high performance liquid chromatography coupled with an ultraviolet (HPLC-UV), which has been established and validated in previous studies. The LC10 ADvp system (Shimadzu Inc., Kyoto, Japan) was used as an analysis device. Briefly describing the analysis method, plasma samples were pretreated through liquid-liquid extraction using 6% (v/v) trichloroacetic acid and then selectively separated on a Symmetry C18 column (5 μm, 4.6 × 150 mm; Waters Co., Milford, MA, USA) using water (mobile phase A) and methanol (mobile phase B) as mobile phases.
The composition ratio of mobile phases A and B was isocratically eluted at 88:12 (v/v), and the quantification of cefaclor was performed at a wavelength of 265 nm. Cephradine, which has a similar structure to cefaclor, was used as an internal standard (IS), and the retention times in the column for cefaclor and IS were 15 min and 23 min, respectively. The lower limit of quantification was 0.1 μg/mL, and the linear calibration curve was secured with a coefficient of determination of 0.99 or higher up to the concentration range of 10 μg/mL. The […]
calibration curve. […]

clinical = conditions: male, human, in vivo, po, 250 mg
Procedure: Cefaclor bioequivalence results in 24 healthy Korean men obtained from a previous study were reused for the analysis of cefaclor pharmacokinetics according to PEPT1 genetic polymorphisms in this study. Among the previous bioequivalence results, those for the test formulation were excluded, and only the clinical results for the reference drug, cefaclor 250 mg capsule (Eli Lilly and Company, Indianapolis, IN, USA; Lot number: L1692Y1) were used. […] Table S2 presents the demographic information of the subjects, including physiological and biochemical parameters. The determination of clinical biochemical parameter values was performed by serological analysis through a dry automated analyzer. The analytical instrument was a microside VITROS (Ortho Clinical Diagnostics, Raritan, NJ, USA) operated by reflectance spectrophotometry. Information on the selection and progress of clinical trial participants is presented in Supplementary Information S1, and information on clinical trial design and sampling is presented in Supplementary Information S2. The clinical trial protocol was thoroughly reviewed and officially approved (approval number: 112; 09.03.2004) by the Institutional Review Board of the Institute of Bioequivalence and Bridging Study (Gwangju, Republic of Korea). Information on the high-performance liquid chromatography-ultraviolet (HPLC-UV) method used to quantify cefaclor in plasma samples is briefly presented in Supplementary Information S3.
Genetic polymorphism information for all subjects participating in the clinical trial could be obtained using blank plasma samples derived from each subject. The genetic information targeted in this study was SLC15A1 exons 5 and 16 as the PEPT1 coding gene. SNPs in SLC15A1 exons 5 and 16 were analyzed through pyrosequencing and restriction fragment length polymorphism (RFLP) via polymerase chain reaction (PCR), respectively. The target SNPs in SLC15A1 exons 5 and 16 were c.381G>A and c.1287G>C, respectively, and the genetic polymorphism analysis methods for these were presented in Supplementary Information S4.
The results of the analysis of plasma concentration over time after single oral administration of cefaclor 250 mg capsule could be calculated as cefaclor pharmacokinetic parameter values through non-compartmental analysis (NCA). NCA was performed using Phoenix WinNonlin software (version 8.4, Certara Inc., Princeton, NJ, USA). The main calculated pharmacokinetic parameters are area under the curve in a plasma concentration-time graph (AUC), clearance (CL/F), peak plasma drug concentration after administration (Cmax), elimination half-life (T1/2), mean residence time (MRT), time to reach Cmax (Tmax), and volume of the distribution (V/F). Specific calculation methods for pharmacokinetic parameters are presented in Supplementary Information S5. The calculated pharmacokinetic parameter values were classified according to the genetic polymorphisms of SLC15A1 exons 5 and 16 and compared between genotype groups. Comparison of significant differences between the three genotype groups (SLC15A1 exon 5) was performed using one-way analysis of variance (ANOVA), and comparison of significant differences between two genotype groups (SLC15A1 exon 16) was performed using a two-tailed t test. All significance judgments in statistical tests were based on a p value of 0.05. Additionally, differences in pharmacokinetics between groups were confirmed through a graphic comparison of cefaclor plasma concentration profiles between genotypes classified according to genetic polymorphisms of SLC15A1 exons 5 and 16.
Supplementary Information S2
Clinical trial design and sampling
This bioequivalence study was performed as randomized, single-dose, open-label, crossover, and two-way studies (with a washout period of 7 days). Prior to the clinical trial, subjects had a heparin-locked (150 unit/mL) JELCO 22G angio-catheter (Smiths Medical, Minneapolis, […]

| Compound | substrate interaction with PEPT1 (PEPT1) | also measured |
| --- | --- | --- |
| CC(=O)OCC1=C(C(=O)O)N2C(=O)[C@@H](NC(=O)Cc3cccs3)[C@H]2SC1 [cephalotin] | may have substrate interactions with PEPT1 | – |
| CC1=C(C(=O)O)N2C(=O)[C@@H](NC(=O)[C@H](N)c3ccc(O)cc3)[C@H]2SC1 [cefadroxil] | may have substrate interactions with PEPT1 | – |
| CC1=C(C(=O)O)N2C(=O)[C@@H](NC(=O)[C@H](N)C3=CCC=CC3)[C@H]2SC1 [cephradine] | may have substrate interactions with PEPT1 | stabilities in plasma samples [1]: 85-115% |
| Cn1nnnc1SCC1=C(C(=O)O)N2C(=O)[C@@H](NC(=O)[C@H](O)c3ccccc3)[C@H]2SC1 [cefamandole] | may have substrate interactions with PEPT1 | – |
| N[C@@H](C(=O)N[C@@H]1C(=O)N2C(C(=O)O)=C(Cl)CS[C@H]12)c1ccccc1 [cefaclor] | interaction substrate with PEPT1 | AUC (clinical; AUCall): 7590 ± 1520 ng·h/mL; AUC(0-inf) (clinical; AUCinf): 7740 ± 1530 ng·h/mL; Cmax (clinical; Cmax): 6510 ± 1900 ng/mL; MRT (clinical; MRT (mean residence time)): 75.6 ± 11.4 min; half-life (clinical; T1/2 (elimination half-life)): 36 ± 3.6 min; Tmax (clinical; Tmax): 49.2 ± 21 min |
| CO/N=C(\C(=O)N[C@@H]1C(=O)N2C(C(=O)O)=C(COC(N)=O)CS[C@H]12)c1ccco1 [cefuroxime] | may have substrate interactions with PEPT1 | – |
| CC1=C(C(=O)O)N2C(=O)[C@@H](NC(=O)[C@H](N)c3ccccc3)[C@H]2SC1 [cephalexin] | may have substrate interactions with PEPT1 | – |
| C=CC1=C(C(=O)O)N2C(=O)[C@@H](NC(=O)/C(=N\OCC(=O)O)c3csc(N)n3)[C@H]2SC1 [cefixime] | may have substrate interactions with PEPT1 | – |
